Measured values reported in patent US20240148821A1, “PHARMACEUTICAL USE OF CYCLIC PEPTIDE COMPOUND” (CHUGAI SEIYAKU KABUSHIKI KAISHA, priority 2021, published 2024).
Numbered stars: 1 amine (or outer) side, 2 acyl side, 3 side chain; on linkers, the order of the positions; unused ones are H or OH. Bridge positions count the residues as written; N and C are the ends. Square brackets hold non-standard residues; d marks the D form. Peptide text beside a SMILES is read from it. * marks the point of attachment. hPhe(3-Cl-4-CF3) = N[C@@H](CCc1ccc(C(F)(F)F)c(Cl)c1)C(=O)O; hPhe(3-F,4-CF3) = N[C@@H](CCc1ccc(C(F)(F)F)c(F)c1)C(=O)O; X49 = CN([C@@H](Cc1cccc(OC(F)(F)F)c1)C(=O)[*:2])[*:1]; NMePhe(4-CF3) = CN[C@@H](Cc1ccc(C(F)(F)F)cc1)C(=O)O; hPhe(4-CF3) = N[C@@H](CCc1ccc(C(F)(F)F)cc1)C(=O)O; NMePhe(3-Me) = CN[C@@H](Cc1cccc(C)c1)C(=O)O; NMeNle(6-CHF2) = CN[C@@H](CCCCC(F)F)C(=O)O; NMePhe(3-F) = CN[C@@H](Cc1cccc(F)c1)C(=O)O; NMeGly(cPent) = CN[C@H](C(=O)O)C1CCCC1; Pro(4,4-F2) = O=C(O)[C@@H]1CC(F)(F)CN1; NMeCha = CN[C@@H](CC1CCCCC1)C(=O)O; NMeGly(cPr) = CN[C@H](C(=O)O)C1CC1; NMeD = CN[C@@H](CC(=O)O)C(=O)O; NMeL = CN[C@@H](CC(C)C)C(=O)O; Chg = N[C@H](C(=O)O)C1CCCCC1; NMeNle = CCCC[C@H](NC)C(=O)O; NMeV = CN[C@H](C(=O)O)C(C)C; d(β3hA) = C[C@@H](N)CC(=O)O; NMeS = CN[C@@H](CO)C(=O)O; NMeA = CN[C@@H](C)C(=O)O; Piperidide = C1CCN(*)CC1; Pra = C#CC[C@H](N)C(=O)O; dNMeA = CN[C@H](C)C(=O)O; Ac5c = NC1(C(=O)O)CCCC1; Aze = O=C(O)[C@@H]1CCN1; CH2CMe2OH = CC(C)(O)C*; Aib = CC(C)(N)C(=O)O; Isopentyl = CC(C)CC*; NEtG = CCNCC(=O)O; Sar = CNCC(=O)O

Test system: Human pancreatic cancer cell line AsPC-1 (G12D mutation Kras)
Test: AsPC-1 cell growth inhibition (AsPC-1 CGI)
Assay type: cell-based
Settings: read-out: AsPC-1 cell growth inhibition, 50% growth inhibitory concentration (IC50 value); 96 hours, CellTiter-Glo, values classified in ranges
Protocol: Test compounds were serially dilated with dimethyl sulfoxide, and 200 nL was then dispensed to a U-bottom 96-well plate using Labcyte Echo. […] The cell suspension was dispensed to a. plate containing a test compound at 100 μL per well and incubated at 37° C. in a 5% carbon dioxide gas incubator. 96 hours later, 80 μL of CellTiter-Glo (Promega) was added to each well and fluorescence was measured.

| Structure (SMILES) | IC50 [nM] |
| --- | --- |
| CC[C@H](C)[C@@H]1NC(=O)[C@H](C)N(C)C(=O)C[C@@H](C)NC(=O)[C@H](C2CCCC2)N(C)C(=O)C2(CCCC2)NC(=O)[C@@H]2CCCN2C(=O)[C@H](CCc2ccc(C(F)(F)F)c(Cl)c2)NC(=O)[C@@H](C)N(C)C(=O)[C@H](Cc2ccc(C(F)(F)F)cc2)N(C)C(=O)[C@@H]2CCN2C(=O)CN(C)C1=O [Compound 1507] (cyclo([Ac5c][NMeGly(cPent)][d(β3hA)][NMeA]I[Sar][Aze][NMePhe(4-CF3)][dNMeA][hPhe(3-Cl-4-CF3)]P)) | > 500 |
| CC[C@H](C)[C@@H]1NC(=O)[C@H](CC(C)C)N(C)C(=O)C[C@@H](C)NC(=O)[C@H](CC(C)C)N(C)C(=O)C2(CCCC2)NC(=O)[C@@H]2CC(F)(F)CN2C(=O)[C@H](CCc2ccc(C(F)(F)F)c(F)c2)NC(=O)CN(C)C(=O)[C@H](CC2CCCCC2)N(C)C(=O)CN(C)C(=O)CN(C)C1=O [Compound 1509] (cyclo([Ac5c][NMeL][d(β3hA)][NMeL]I[Sar][Sar][NMeCha][Sar][hPhe(3-F,4-CF3)][Pro(4,4-F2)])) | > 500 |
| CC[C@H](C)[C@@H]1NC(=O)[C@H](CC(C)C)N(C)C(=O)C[C@@H](C)NC(=O)[C@H](CC(C)C)N(C)C(=O)C2(CCCC2)NC(=O)[C@@H]2CCCN2C(=O)[C@H](CCc2ccc(C(F)(F)F)c(F)c2)NC(=O)CN(C)C(=O)[C@H](CCCCC(F)F)N(C)C(=O)CN(C)C(=O)CN(C)C1=O [Compound 1515] (cyclo([Ac5c][NMeL][d(β3hA)][NMeL]I[Sar][Sar][NMeNle(6-CHF2)][Sar][hPhe(3-F,4-CF3)]P)) | > 500 |
| CCCC[C@H]1C(=O)N[C@H](C)CC(=O)N(C)[C@@H](CC(C)C)C(=O)N[C@@H]([C@@H](C)CC)C(=O)N(C)CC(=O)N(C)CC(=O)N(C)[C@@H](CC2CCCCC2)C(=O)N(C)CC(=O)N[C@@H](CCc2ccc(C(F)(F)F)c(F)c2)C(=O)N2CCC[C@H]2C(=O)NC2(CCCC2)C(=O)N1C [Compound 1518] (cyclo([Ac5c][NMeNle][d(β3hA)][NMeL]I[Sar][Sar][NMeCha][Sar][hPhe(3-F,4-CF3)]P)) | > 500 |
| CC[C@H](C)[C@@H]1NC(=O)[C@H](C)N(C)C(=O)C[C@@H](C)NC(=O)[C@H](C2CCCC2)N(C)C(=O)C2(CCCC2)NC(=O)[C@@H]2CCCN2C(=O)[C@H](CCc2ccc(C(F)(F)F)c(Cl)c2)NC(=O)[C@@H](C)N(C)C(=O)[C@H](Cc2ccc(C(F)(F)F)cc2)N(C)C(=O)CN(C)C(=O)CN(C)C1=O [Compound 1520] (cyclo([Ac5c][NMeGly(cPent)][d(β3hA)][NMeA]I[Sar][Sar][NMePhe(4-CF3)][dNMeA][hPhe(3-Cl-4-CF3)]P)) | > 500 |
| CC[C@H](C)[C@@H]1NC(=O)[C@H](CC(C)C)N(C)C(=O)C[C@@H](C)NC(=O)[C@H](CC(C)C)N(C)C(=O)C(C)(C)NC(=O)[C@H](CC(C)C)N(C)C(=O)[C@H](CCc2ccc(C(F)(F)F)c(F)c2)NC(=O)CN(C)C(=O)[C@H](CCCCC(F)F)N(C)C(=O)CN(C)C(=O)CN(C)C1=O [Compound 1526] (cyclo([Aib][NMeL][d(β3hA)][NMeL]I[Sar][Sar][NMeNle(6-CHF2)][Sar][hPhe(3-F,4-CF3)][NMeL])) | > 500 |
| CC(C)C[C@H]1C(=O)N[C@@H](C2CCCCC2)C(=O)N(C)CC(=O)N(C)CC(=O)N(C)[C@@H](CC2CCCCC2)C(=O)N(C)CC(=O)N[C@@H](CCc2ccc(C(F)(F)F)c(F)c2)C(=O)N2CCC[C@H]2C(=O)NC2(CCCC2)C(=O)N(C)[C@@H](CC(C)C)C(=O)N[C@H](C)CC(=O)N1C [Compound 1527] (cyclo([Ac5c][NMeL][d(β3hA)][NMeL][Chg][Sar][Sar][NMeCha][Sar][hPhe(3-F,4-CF3)]P)) | > 500 |
| CC[C@H](C)[C@@H]1NC(=O)[C@H](CC(C)C)N(C)C(=O)C[C@@H](C(=O)N2CCCCC2)N(C)C(=O)[C@H](CC(C)C)N(C)C(=O)C(C)(C)NC(=O)[C@H](COCC(C)(C)O)N(C)C(=O)[C@H](CCc2ccc(C(F)(F)F)cc2)NC(=O)CN(C)C(=O)[C@H](COCCC(C)C)N(C)C(=O)CN(C)C(=O)CN(CC)C1=O [Compound 1528] ([NMeL]I[NEtG][Sar][NMeS](Isopentyl)[Sar][hPhe(4-CF3)][NMeS](CH2CMe2OH)[Aib][NMeL][NMeD]-Piperidide; lactam N-11) | > 500 |
| CC[C@H](C)[C@@H]1NC(=O)[C@H](CC(C)C)N(C)C(=O)C[C@@H](C(=O)N2CCCCC2)N(C)C(=O)[C@H](CC(C)C)N(C)C(=O)C(C)(C)NC(=O)[C@H](COCC(C)(C)O)N(C)C(=O)[C@H](CCc2ccc(C(F)(F)F)c(F)c2)NC(=O)CN(C)C(=O)[C@H](COCCC(C)C)N(C)C(=O)CN(C)C(=O)CN(C)C1=O [Compound 1532] ([NMeL]I[Sar][Sar][NMeS](Isopentyl)[Sar][hPhe(3-F,4-CF3)][NMeS](CH2CMe2OH)[Aib][NMeL][NMeD]-Piperidide; lactam N-11) | > 500 |
| C#CC[C@@H]1NC(=O)[C@H](CC(C)C)N(C)C(=O)C[C@@H](C)NC(=O)[C@H](CC(C)C)N(C)C(=O)C2(CCCC2)NC(=O)[C@@H]2CCCN2C(=O)[C@H](CCc2ccc(C(F)(F)F)c(F)c2)NC(=O)CN(C)C(=O)[C@H](CC2CCCCC2)N(C)C(=O)CN(C)C(=O)CN(C)C1=O [Compound 1533] (cyclo([Ac5c][NMeL][d(β3hA)][NMeL][Pra][Sar][Sar][NMeCha][Sar][hPhe(3-F,4-CF3)]P)) | > 500 |
| CC[C@H](C)[C@@H]1NC(=O)[C@H](CC(C)C)N(C)C(=O)C[C@@H](C)NC(=O)[C@H](C(C)C)N(C)C(=O)C2(CCCC2)NC(=O)[C@@H]2CCCN2C(=O)[C@H](CCc2ccc(C(F)(F)F)c(F)c2)NC(=O)CN(C)C(=O)[C@H](CC2CCCCC2)N(C)C(=O)CN(C)C(=O)CN(C)C1=O [Compound 1534] (cyclo([Ac5c][NMeV][d(β3hA)][NMeL]I[Sar][Sar][NMeCha][Sar][hPhe(3-F,4-CF3)]P)) | > 500 |
| CC[C@H](C)[C@@H]1NC(=O)[C@H](C)N(C)C(=O)C[C@@H](C)NC(=O)[C@H](C2CCCC2)N(C)C(=O)C2(CCCC2)NC(=O)[C@@H]2CCCN2C(=O)[C@H](CCc2ccc(C(F)(F)F)c(Cl)c2)NC(=O)[C@@H](C)N(C)C(=O)[C@H](CC2CCCCC2)N(C)C(=O)CN(C)C(=O)CN(C)C1=O [Compound 1535] (cyclo([Ac5c][NMeGly(cPent)][d(β3hA)][NMeA]I[Sar][Sar][NMeCha][dNMeA][hPhe(3-Cl-4-CF3)]P)) | > 500 |
| CC[C@H](C)[C@@H]1NC(=O)[C@H](CC(C)C)N(C)C(=O)C[C@@H](C(=O)N2CCCCC2)N(C)C(=O)[C@H](CC(C)C)N(C)C(=O)C(C)(C)NC(=O)[C@H](COCC(C)(C)O)N(C)C(=O)[C@H](CCc2ccc(C(F)(F)F)c(Cl)c2)NC(=O)CN(C)C(=O)[C@H](COCCC(C)C)N(C)C(=O)CN(C)C(=O)CN(C)C1=O [Compound 1541] ([NMeL]I[Sar][Sar][NMeS](Isopentyl)[Sar][hPhe(3-Cl-4-CF3)][NMeS](CH2CMe2OH)[Aib][NMeL][NMeD]-Piperidide; lactam N-11) | > 500 |
| CC[C@H](C)[C@@H]1NC(=O)[C@H](CC(C)C)N(C)C(=O)C[C@@H](C)NC(=O)[C@H](CC(C)C)N(C)C(=O)C2(CCCC2)NC(=O)[C@@H]2CCN2C(=O)[C@H](CCc2ccc(C(F)(F)F)c(F)c2)NC(=O)CN(C)C(=O)[C@H](CC2CCCCC2)N(C)C(=O)CN(C)C(=O)CN(C)C1=O [Compound 1545] (cyclo([Ac5c][NMeL][d(β3hA)][NMeL]I[Sar][Sar][NMeCha][Sar][hPhe(3-F,4-CF3)][Aze])) | > 500 |
| CC[C@H](C)[C@@H]1NC(=O)[C@H](CC(C)C)N(C)C(=O)C[C@@H](C)NC(=O)[C@H](CC(C)C)N(C)C(=O)C(C)(C)NC(=O)[C@H](COCC(C)(C)O)N(C)C(=O)[C@H](CCc2ccc(C(F)(F)F)c(Cl)c2)NC(=O)CN(C)C(=O)[C@H](COCCC(C)C)N(C)C(=O)CN(C)C(=O)CN(C)C1=O [Compound 1546] (cyclo([Aib][NMeL][d(β3hA)][NMeL]I[Sar][Sar][NMeS](Isopentyl)[Sar][hPhe(3-Cl-4-CF3)][NMeS](CH2CMe2OH))) | > 500 |
| CC[C@H](C)[C@@H]1NC(=O)[C@H](CC(C)C)N(C)C(=O)C[C@@H](C)NC(=O)[C@H](C(C)C)N(C)C(=O)C2(CCCC2)NC(=O)[C@@H]2CCCN2C(=O)[C@H](CCc2ccc(C(F)(F)F)c(Cl)c2)NC(=O)CN(C)C(=O)[C@H](Cc2cccc(C)c2)N(C)C(=O)CN(C)C(=O)CN(C)C1=O [Compound 1547] (cyclo([Ac5c][NMeV][d(β3hA)][NMeL]I[Sar][Sar][NMePhe(3-Me)][Sar][hPhe(3-Cl-4-CF3)]P)) | > 500 |
| CC[C@H](C)[C@@H]1NC(=O)[C@H](CC(C)C)N(C)C(=O)C[C@@H](C(=O)N2CCCCC2)N(C)C(=O)[C@H](C(C)C)N(C)C(=O)C2(CCCC2)NC(=O)[C@@H]2CCCN2C(=O)[C@H](CCc2ccc(C(F)(F)F)c(Cl)c2)NC(=O)CN(C)C(=O)[C@H](CC2CCCCC2)N(C)C(=O)[C@@H]2CCN2C(=O)[C@H](C2CC2)N(C)C1=O [Compound 1553] ([NMeL]I[NMeGly(cPr)][Aze][NMeCha][Sar][hPhe(3-Cl-4-CF3)]P[Ac5c][NMeV][NMeD]-Piperidide; lactam N-11) | > 500 |
| CC[C@H](C)[C@@H]1NC(=O)[C@H](CC(C)C)N(C)C(=O)C[C@@H](C)NC(=O)[C@H](C(C)C)N(C)C(=O)C2(CCCC2)NC(=O)[C@@H]2CCCN2C(=O)[C@H](CCc2ccc(C(F)(F)F)c(Cl)c2)NC(=O)CN(C)C(=O)[C@H](Cc2cccc(F)c2)N(C)C(=O)CN(C)C(=O)CN(C)C1=O [Compound 1556] (cyclo([Ac5c][NMeV][d(β3hA)][NMeL]I[Sar][Sar][NMePhe(3-F)][Sar][hPhe(3-Cl-4-CF3)]P)) | > 500 |
| CC[C@H](C)[C@@H]1NC(=O)[C@H](CC(C)C)N(C)C(=O)C[C@@H](C)NC(=O)[C@H](C(C)C)N(C)C(=O)C2(CCCC2)NC(=O)[C@@H]2CCCN2C(=O)[C@H](CCc2ccc(C(F)(F)F)c(Cl)c2)NC(=O)CN(C)C(=O)[C@H](Cc2cccc(OC(F)(F)F)c2)N(C)C(=O)CN(C)C(=O)CN(C)C1=O [Compound 1573] (cyclo([Ac5c][NMeV][d(β3hA)][NMeL]I[Sar][Sar][X49][Sar][hPhe(3-Cl-4-CF3)]P)) | > 500 |
